Assay results: patent US20260102501A1, “ANTI-CANCER NUCLEAR HORMONE RECEPTOR-TARGETING COMPOUNDS” (Nuvation Bio Inc., priority 2022, published 2026)
Residue numbers refer to the chain shown, from its start. Where a name gives a salt, the structure may show the parent alone. Read-outs that look alike come from different tables or passages of the source.

Tests used:
IEC6 cells = assay: Cell viability assay (CellTiterGlo); settings: Rattus norvegicus, IEC-6, 144 h, read-out: IEC-6 (IC50, nM)
T47D cells = assay: Cell viability assay (CellTiterGlo); assay type: cell-based; settings: Homo sapiens, 144 h
LNCap cells = assay: Cell viability assay (CellTiterGlo); assay type: cell-based; settings: Homo sapiens, 144 h
[1] = target: T1, AR (cytosol from LnCaP cells) (Homo sapiens, UniProt P10275, T878A); assay: AR binding assay (3H-R1881 displacement)
T1 sequence (P10275 1-920 T878A): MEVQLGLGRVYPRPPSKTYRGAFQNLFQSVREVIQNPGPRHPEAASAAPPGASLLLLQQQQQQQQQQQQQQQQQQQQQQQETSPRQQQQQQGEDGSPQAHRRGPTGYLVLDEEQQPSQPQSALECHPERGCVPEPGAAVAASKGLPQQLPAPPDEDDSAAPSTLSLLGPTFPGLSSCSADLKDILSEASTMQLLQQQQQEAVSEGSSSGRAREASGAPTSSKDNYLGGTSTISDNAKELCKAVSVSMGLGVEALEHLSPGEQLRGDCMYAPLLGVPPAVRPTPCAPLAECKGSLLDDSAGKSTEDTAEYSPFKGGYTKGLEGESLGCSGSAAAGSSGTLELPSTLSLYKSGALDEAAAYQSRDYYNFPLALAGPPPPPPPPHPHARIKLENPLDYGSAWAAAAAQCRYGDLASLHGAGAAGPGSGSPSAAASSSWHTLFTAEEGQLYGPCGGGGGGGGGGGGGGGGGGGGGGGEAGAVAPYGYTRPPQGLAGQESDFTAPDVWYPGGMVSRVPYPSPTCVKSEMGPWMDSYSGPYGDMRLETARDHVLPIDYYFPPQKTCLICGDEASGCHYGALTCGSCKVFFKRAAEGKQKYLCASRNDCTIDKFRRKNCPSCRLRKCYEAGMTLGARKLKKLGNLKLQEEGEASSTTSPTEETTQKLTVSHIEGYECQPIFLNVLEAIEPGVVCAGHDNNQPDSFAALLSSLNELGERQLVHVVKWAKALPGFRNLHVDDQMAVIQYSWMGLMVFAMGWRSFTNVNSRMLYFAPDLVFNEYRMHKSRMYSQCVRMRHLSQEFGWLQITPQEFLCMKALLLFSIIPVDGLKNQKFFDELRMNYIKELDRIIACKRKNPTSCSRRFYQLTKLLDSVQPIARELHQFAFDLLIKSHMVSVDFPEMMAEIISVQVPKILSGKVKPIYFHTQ
Method: The plate was then centrifuged at 3000 rpm for 30 minutes at 4° C.

[2] = target: T2, full-length androgen receptor (HEK293 cells stably expressing) (Homo sapiens, UniProt P10275); assay: AR antagonism assay (luciferase reporter)
T2 sequence (P10275 1-920): T1 sequence (P10275 1-920 T878A) with A878T
Method: AR antagonism assay: To evaluate AR antagonist activity, test compound was added to the assay plate (top dose 10 μM, 3 fold serial dilution, 10 point dose response). HEK293 cells stably expressing the full-length androgen receptor were seeded at a density of 20000 cells/well in the assay plate. The assay plate was then incubated at room temperature for 10 minutes and at 37° C. 5% CO2 for 20 minutes. Testosterone was added to the assay plate at 1 nM final concentration and the assay plate incubated at 37° C., 5% CO2 for 20 h. […] Steady-glo was added to the assay plate and mixed at room temperature for 20 minutes on an orbital shaker, before reading out on the En Vision plate reader.

[3] = target: T3, Progesterone PR-B receptors from human breast carcinoma T47D cells (Homo sapiens, UniProt P06401); assay: PR binding assay ([3H] Progesterone displacement)
T3 sequence (P06401 1-933): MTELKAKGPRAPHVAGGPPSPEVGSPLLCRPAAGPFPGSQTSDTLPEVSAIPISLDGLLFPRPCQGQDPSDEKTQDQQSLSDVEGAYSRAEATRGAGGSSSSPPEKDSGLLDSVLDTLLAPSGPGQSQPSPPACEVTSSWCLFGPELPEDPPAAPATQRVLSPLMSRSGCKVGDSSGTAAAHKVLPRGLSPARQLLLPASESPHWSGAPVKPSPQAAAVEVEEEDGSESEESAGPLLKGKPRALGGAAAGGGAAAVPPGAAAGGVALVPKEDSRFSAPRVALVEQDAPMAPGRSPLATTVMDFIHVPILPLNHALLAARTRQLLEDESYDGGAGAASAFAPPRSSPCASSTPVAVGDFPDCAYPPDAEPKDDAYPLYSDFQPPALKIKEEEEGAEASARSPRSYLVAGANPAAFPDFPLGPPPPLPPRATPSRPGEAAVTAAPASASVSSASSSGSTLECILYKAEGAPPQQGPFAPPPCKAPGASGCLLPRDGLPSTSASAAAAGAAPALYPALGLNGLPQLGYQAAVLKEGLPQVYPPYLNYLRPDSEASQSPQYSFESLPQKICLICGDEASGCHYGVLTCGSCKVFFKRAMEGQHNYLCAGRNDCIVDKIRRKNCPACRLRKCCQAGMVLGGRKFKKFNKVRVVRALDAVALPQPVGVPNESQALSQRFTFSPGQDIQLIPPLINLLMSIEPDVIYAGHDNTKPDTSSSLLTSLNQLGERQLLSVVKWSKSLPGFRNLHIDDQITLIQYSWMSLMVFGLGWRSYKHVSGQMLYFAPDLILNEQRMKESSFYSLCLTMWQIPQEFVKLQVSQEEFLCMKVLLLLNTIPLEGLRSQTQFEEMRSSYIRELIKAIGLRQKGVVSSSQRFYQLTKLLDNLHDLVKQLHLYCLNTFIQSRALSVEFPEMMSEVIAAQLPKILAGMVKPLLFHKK

[4] = target: T4, ligand binding domain of the glucocorticoid receptor (HEK293 cells stably expressing) (Homo sapiens, UniProt P04150); assay: GR antagonism assay (luciferase reporter)
T4 sequence (P04150 524-758 limits assumed): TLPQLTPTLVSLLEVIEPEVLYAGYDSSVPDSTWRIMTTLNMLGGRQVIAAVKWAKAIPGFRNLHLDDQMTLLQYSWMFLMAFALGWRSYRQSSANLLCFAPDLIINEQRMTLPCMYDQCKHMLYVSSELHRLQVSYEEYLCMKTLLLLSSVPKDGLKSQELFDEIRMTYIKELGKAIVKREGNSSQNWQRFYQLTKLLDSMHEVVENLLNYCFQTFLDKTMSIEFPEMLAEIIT
Method: HEK293 cells stably expressing the ligand binding domain of the glucocorticoid receptor were seeded at a density of 40000 cells/well in the assay plate. The assay plate was then incubated at 37° C., 5% CO2 for 30 minutes. Dexamethasone was added to the assay plate at 1.5 nM final concentration and the assay plate incubated at 37° C., 5% CO2 for 20 h. After the incubation period, Dual-glo luciferase reagent was added to the assay plate and mixed at room temperature for 20 minutes on an orbital shaker, before reading out on the En Vision plate reader. 50 μL of Stop & Glo reagent was added to assay plate, mixed at room temperature for 20 minutes, and read on the Envision plate reader.

[5] = 6 days incubation, CellTiterGlo, read-out: T47D (IC50)
[6] = 6 days incubation, CellTiterGlo, read-out: LNCap (IC50)

CC[C@@]1(O)C(=O)OCc2c1cc1n(c2=O)Cc2cc3c(CN(C)C)c(OC(=O)N4C[C@H](C)N(C(=O)[C@H](CCCNC(N)=O)NC(=O)[C@@H](NCCCCCCN(C)c5ccc([C@H]6C[C@@]7(C)[C@@H](CC[C@]7(OC(C)=O)C(C)=O)[C@@H]7CCC8=CC(=O)CCC8=C76)cc5)C(C)C)C[C@H]4C)ccc3nc2-1 [Compound 35]
IC50 (IEC6 cells): > 1000 nM | IC50 (T47D cells; read-out: T47D (IC50, nM)): 101 to 1000 nM | IC50 (LNCap cells; read-out: LNCap (IC50, nM)): > 1000 nM | IC50 [1]: 10 to 100 nM | IC50 [2]: > 1000 nM | IC50 [3]: < 10 nM | IC50 [4]: 10 to 100 nM

CC[C@@]1(O)C(=O)OCc2c1cc1n(c2=O)Cc2cc3c(CN4CCN(CCCCCCN(C)c5ccc([C@H]6C[C@@]7(C)[C@@H](CC[C@]7(OC(C)=O)C(C)=O)[C@@H]7CCC8=CC(=O)CCC8=C76)cc5)CC4)cccc3nc2-1 [Compound 38, (8S,11R,13S,14S,17R)-17-acetyl-11-(4-((6-(4-(((S)-4-ethyl-4-hydroxy-3,14-dioxo-3,4,12,14-tetrahydro-1H-pyrano[3′,4′:6,7]indolizino[1,2-b]quinolin-10-yl)methyl)piperazin-1-yl)hexyl)(methyl)amino)phenyl)-13-methyl-3-oxo-2,3,6,7,8,11,12,13,14,15,16,17-dodecahydro-1H-cyclopenta[a]phenanthren-17-yl acetate]
IC50 (IEC6 cells): > 1000 nM | IC50 (T47D cells; [5]): 101 to 1000 nM | IC50 (LNCap cells; [6]): 101 to 1000 nM | IC50 [1]: < 10 nM | IC50 [2]: > 1000 nM | IC50 [3]: < 10 nM | IC50 [4]: 10 to 100 nM

CC[C@@]1(OC(=O)N2CCN(CCCCCCN(C)c3ccc([C@H]4C[C@@]5(C)[C@@H](CC[C@]5(OC(C)=O)C(C)=O)[C@@H]5CCC6=CC(=O)CCC6=C54)cc3)CC2)C(=O)OCc2c1cc1n(c2=O)Cc2cc3cc(OC)ccc3nc2-1 [Compound 24, (S)-4-Ethyl-9-methoxy-3,14-dioxo-3,4,12,14-tetrahydro-1H-pyrano[3′,4′:6,7]indolizino[1,2-b]quinolin-4-yl 4-(6-((4-((8S,11R,13S,14S,17R)-17-acetoxy-17-acetyl-13-methyl-3-oxo-2,3,6,7,8,11,12,13,14,15,16,17-dodecahydro-1H-cyclopenta[a]phenanthren-11-yl)phenyl)(methyl)amino)hexyl)piperazine-1-carboxylate Formate]
IC50 (T47D cells; read-out: T47D (IC50)): 101 to 1000 nM | IC50 (LNCap cells; read-out: LNCap (IC50)): 101 to 1000 nM | IC50 [3]: < 10 nM

CC[C@@]1(O)C(=O)OCc2c1cc1n(c2=O)Cc2c-1nc1cc(F)c(C)c3c1c2[C@@H](NC(=O)CN1CCN(CCCCCCN(C)c2ccc([C@H]4C[C@@]5(C)[C@@H](CC[C@]5(OC(C)=O)C(C)=O)[C@@H]5CCC6=CC(=O)CCC6=C54)cc2)CC1)CC3 [Compound 37, (8S,11R,13S,14S,17R)-17-acetyl-11-(4-((6-(4-(2-(((1S,9S)-9-ethyl-5-fluoro-9-hydroxy-4-methyl-10,13-dioxo-2,3,9,10,13,15-hexahydro-1H,12H-benzo[de]pyrano[3′,4′:6,7]indolizino[1,2-b]quinolin-1-yl)amino)-2-oxoethyl)piperazin-1-yl)hexyl)(methyl)amino)phenyl)-13-methyl-3-oxo-2,3,6,7,8,11,12,13,14,15,16,17-dodecahydro-1H-cyclopenta[a]phenanthren-17-yl acetate]
IC50 (IEC6 cells): 101 to 1000 nM | IC50 (T47D cells; [5]): 10 to 100 nM | IC50 (LNCap cells; [6]): 101 to 1000 nM | IC50 [1]: < 10 nM | IC50 [2]: 101 to 1000 nM | IC50 [3]: < 10 nM | IC50 [4]: 10 to 100 nM

CC[C@@]1(O)C(=O)OCc2c1cc1n(c2=O)Cc2cc3c(CN4CCN(C(=O)OCCCCN(C)c5ccc([C@H]6C[C@@]7(C)[C@@H](CC[C@]7(OC(C)=O)C(C)=O)[C@@H]7CCC8=CC(=O)CCC8=C76)cc5)CC4)c(O)ccc3nc2-1 [Compound 41, 4-((4-((8S,11R,13S,14S,17R)-17-acetoxy-17-acetyl-13-methyl-3-oxo-2,3,6,7,8,11,12,13,14,15,16,17-dodecahydro-1H-cyclopenta[a]phenanthren-11-yl)phenyl)(methyl)amino)butyl 4-(((S)-4-ethyl-4,9-dihydroxy-3,14-dioxo-3,4,12,14-tetrahydro-1H-pyrano[3′,4′:6,7]indolizino[1,2-b]quinolin-10-yl)methyl)piperazine-1-carboxylate]
IC50 (IEC6 cells): 101 to 1000 nM | IC50 (T47D cells; [5]): 10 to 100 nM | IC50 (LNCap cells; [6]): 10 to 100 nM | IC50 [1]: 10 to 100 nM | IC50 [2]: 101 to 1000 nM | IC50 [3]: < 10 nM | IC50 [4]: < 10 nM
